{"source": "patent US20240390871A1", "about": "“Production of encapsulated nanoparticles at high volume fractions” (iCeutica Pty Ltd., priority 2009, published 2024)", "origin": "cited, not measured here", "details": "previous animal studies; reducing the size of metaxalone"}
{"smiles": "Cc1cc(C)cc(OCC2CNC(=O)O2)c1", "note": "(stereo not shown) [metaxalone]", "values": [{"measurement": "rates of absorption and overall bioavailability (as measured by AUC)", "value": "much higher rates of absorption and overall bioavailability"}]}
